Where only a bound is given, the exact number is not on record here.

For the first assay, the system named is MCF-7 cells. Description: In vitro cell proliferation assay (WST assay). In kind it is cell-based. Conditions: Homo sapiens, MCF7, 72 h, total incubation time 72 h, viable cells by WST-1 reagent. The method, then:
In vitro Cell Proliferation Assay (WST Assay)
MCF-7 cells were seeded in 96-well plates at 3×10^3 cells/well in 100 μL of culture medium, 8 wells were left empty for media only controls.
After 24 h the compound titrations were performed, in a separate dilution plate, by serially diluting the compounds of general formula (I) in culture medium. A 100 μL of each dilution was added to the plated cells, this was done in triplicate, and controls (e.g. DMSO and blanks) were included. The plates were incubated for 24 h at 37° C. in a CO2 incubator. The compound titrations were repeated in a separate dilution plate after 24 h. The media plus compound from the assay plates were then aspirated. A 100 μL of media was then added to all wells, followed by 100 μL of each compound dilution. The plates were incubated for a further 48 h at 37° C. in a CO2 incubator (total incubation time 72 h). The number of viable cells was then assessed using Cell Proliferation Reagent WST-1. 10 μL of WST-1 reagent added to each well and incubated for one to four hours at 37° C. in CO2 incubator. The absorbance was measured (450 nm/690 nm).
The activity of compounds of general formula (I) in reducing the number of viable cells was calculated as:
% activity=[(S^c−B)/(S^o−B)]×100
S^c denotes signal measured in the presence of test compound, S^o denotes signal detected in the absence of compound, and B denotes background signal, measured in blank wells containing medium only. Analyse data using GraphPad Prism.
(Tetrazolium assays rely on reduction of a dye to a coloured formazan, in cell work by metabolically active cells.)
A word on the IC50: it is the concentration at which inhibition is half-maximal. Take `Cc1ccc2c(c1Cl)NC(=O)C2(c1ccc(O)cc1)C1CCCCCC1` (stereo not drawn) [Compound 1053, 7-chloro-3-cycloheptyl-3-(4-hydroxyphenyl)-6-methylindolin-2-one]: half-maximal inhibition (IC50) required 3.5 nM.

Turning to `O=C1Nc2c(ccc(F)c2F)C1(c1ccc(O)cc1)c1ccc2ccccc2c1` (stereo not drawn) [Compound 1033, 6,7-difluoro-3-(4-hydroxyphenyl)-3-(naphthalene-2-yl)indolin-2-one], the IC50 is 10.2 nM.

As to `O=C1Nc2c(ccc(F)c2F)C1(c1ccc(O)cc1)c1ccc(O)cc1` [Reference compound, 6,7-Difluoro-3,3-bis-(4-hydroxy-phenyl)-1,3-dihydro-indol-2-one, reference compound], half-maximal inhibition (IC50) required 8.4 nM.

As to `Cc1ccc2c(c1C)NC(=O)C2(c1ccc(O)cc1)C1CCCCC1` (stereo not drawn) [Compound 1025, 3-cyclohexyl-3-(4-hydroxyphenyl)-6,7-dimethylindolin-2-one], half-maximal inhibition (IC50) was put at 25.9 nM. Against the preceding compound, the IC50 is about 3.1-fold higher.

`COc1cc(C)c2c(c1)C(c1ccc(O)cc1)(C1CCCCC1)C(=O)N2` (stereo not drawn) [Compound 1070] registered an IC50 of 10 nM.

Turning to `Cc1ccc2c(c1C)NC(=O)C2(c1ccc(O)cc1)C1CCCCCC1` (stereo not drawn) [Compound 1043, 3-cycloheptyl-3-(4-hydroxyphenyl)-6,7-dimethylindolin-2-one], the IC50 is 19.1 nM.

`Cc1cccc2c1NC(=O)C2(c1ccc(O)cc1)C1CCCCC1` (stereo not drawn) [Compound 1059, 3-cyclohexyl-3-(4-hydroxyphenyl)-7-methylindolin-2-one] came in with an IC50 of 32.9 nM. This IC50 lies about 1.7-fold higher than the previous one.

In the case of `Cc1ccc2c(c1F)NC(=O)C2(c1ccc(O)cc1)C1CCCCCC1` (stereo not drawn) [Compound 1034, 3-cycloheptyl-7-fluoro-3-(4-hydroxyphenyl)-6-methylindolin-2-one], 9.1 nM corresponded to half-maximal inhibition (IC50). This IC50 lies about 3.6-fold lower than the previous one.

In turn, `Cc1ccc2c(c1Br)NC(=O)C2(c1ccc(O)cc1)C1CCCCC1` (stereo not drawn) [Compound 1056, 7-bromo-3-cyclohexyl-3-(4-hydroxyphenyl)-6-methylindolin-2-one] came in with an IC50 of 10.5 nM. This IC50 and that of the compound before are within 1.5-fold of each other.

`Cc1c(F)ccc2c1NC(=O)C2(c1ccc(O)cc1)C1CCCCC1` (stereo not drawn) [Compound 1039, 3-cyclohexyl-6-fluoro-3-(4-hydroxyphenyl)-7-methylindolin-2-one] yielded an IC50 of 5.7 nM.

As for `COc1ccc2c(c1C)NC(=O)C2(c1ccc(O)cc1)C1CCCCCC1` (stereo not drawn) [Compound 1087, 3-cycloheptyl-3-(4-hydroxyphenyl)-6-methoxy-7-methylindolin-2-one], half-maximal inhibition (IC50) was put at 4.7 nM.

Consider `O=C1Nc2c(ccc(F)c2F)C1(c1ccncc1)c1ccc(O)cc1` (stereo not drawn) [Compound 1006, 6,7-difluoro-3-(4-hydroxyphenyl)-3-(pyridin-4-yl)indolin-2-one], for which inhibition was half-maximal at 34.5 nM (IC50).

With `O=C1Nc2c(ccc(F)c2F)C1(c1ccc(O)cc1)C1CCCCCC1` (stereo not drawn) [Compound 1018, 3-cycloheptyl-6,7-difluoro-3-(4-hydroxyphenyl)indolin-2-one], the IC50 was 3.4 nM.

In turn, `O=C1Nc2c(ccc(F)c2F)C1(c1ccc(O)cc1)c1ccc(F)c(F)c1` (stereo not drawn) [Compound 1022, 3-(3,4-difluorophenyl)-6,7-difluoro-3-(4-hydroxyphenyl)indolin-2-one] came in with an IC50 of 5.2 nM.

The compound `O=C1Nc2c(ccc(F)c2F)C1(c1ccc(O)cc1)C1CCCCC1` (stereo not drawn) [Compound 1010, 3-cyclohexyl-6,7-difluoro-3-(4-hydroxyphenyl)indolin-2-one] gave an IC50 of 7.3 nM.

For `O=C1Nc2c(C(F)(F)F)cccc2C1(c1ccc(O)cc1)C1CCCCC1` (stereo not drawn) [Compound 1021, 3-cyclohexyl-3-(4-hydroxyphenyl)-7-(trifluoromethyl)indolin-2-one], the half-maximal inhibitory concentration (IC50) amounted to 17.5 nM.

The compound `O=C1Nc2c(Br)cccc2C1(c1ccc(O)cc1)C1CCCCC1` (stereo not drawn) [Compound 1062, 7-bromo-3-cyclohexyl-3-(4-hydroxyphenyl)indolin-2-one] gave an IC50 of 6.8 nM.

`COc1ccc2c(c1C)NC(=O)C2(c1ccc(O)cc1)C1CCCCC1` (stereo not drawn) [Compound 1046, 3-cyclohexyl-3-(4-hydroxyphenyl)-6-methoxy-7-methylindolin-2-one]: the IC50 was determined as 12.6 nM.

For `Cc1ccc(C2(c3ccc(O)cc3)C(=O)Nc3c2ccc(F)c3F)cc1F` (stereo not drawn) [Compound 1023, 6,7-difluoro-3-(3-fluor-4-methylphenyl)-3-(4-hydroxyphenyl)indolin-2-one], the IC50 turned out to be 4 nM.

The assay is the same for the next values; noted with them: total incubation time 72 h, viable cells by WST-1 reagent.
The compound `O=C1Nc2c(ccc(F)c2F)C1(c1ccc(O)cc1)C1CCCCC1` (single isomer, unassigned) [Compound 1028, 3-cyclohexyl-6,7-difluoro-3-(4-hydroxyphenyl)indolin-2-one] gave a concentration for half-maximal inhibition (IC50) of over 500 nM.

`O=C1Nc2c(ccc(F)c2F)C1(c1ccc(O)cc1)C1CCCCC1` (single isomer, unassigned) [Compound 1027, 3-cyclohexyl-6,7-difluoro-3-(4-hydroxyphenyl)indolin-2-one] returned an IC50 of 3.9 nM.

The values are drawn from patent US20100227863A1, “SUBSTITUTED 3-(4-HYDROXYPHENYL)-INDOLIN-2-ONE COMPOUNDS” (TOPOTARGET A/S, priority 2007, published 2010).
